Assay [1] can be described thus: O2.- radical scavenging in the pyrogallol autoxidation test. The class given is biochemical. The procedure:
FIG. 2. Activity of KM-34 (5-100 μM) as radical scavenger O2.− expressed as the percentage inhibition of autoxidation of pyrogallol. The same was obtained by varying the absorbance at 420 nm for 1 minute with respect to a blank uninhibited reaction: without KM-34; the slope was calculated for each concentration of the sample and for the target with a R2>0.98. The reaction takes place in […] Tris-HCl pH 8.2 buffer and was initiated by the addition of 0.134 mM Pirogalol*P<0.05 to the carrier (uninhibited reaction).
A non-enzymatic system generating these radicals was used to evaluate the O2.^− sequestration activity of KM-34, which catalyzes the autoxidation of pyrogallol, forming a colored compound that absorbs at 420 nm (Marklund, 1985).

Assay [2] concerns rat brain homogenate. Description: Spontaneous or Fe3+/AA-induced lipid peroxidation (POL) in rat brain homogenate. It counts as biochemical. The conditions noted are these: 37° C 1 hour, MDA. The procedure:
FIG. 5. Effects of KM-34 (0.01-100 μM) on spontaneous lipid peroxidation and e induced by 100 mM FeCl3 and 100 mM AA. The control contains absolute ethanol instead of KM-34. The samples were incubated at 37° C for 1 hour and then the MDA levels were quantified by thiobarbituric acid (ATB) and the absorbance was determined at 532 nm. Values are expressed as the mean ± SD (n=3). *P<0.05 with respect to the control.
The brain homegenate is rich in phospholipids, which undergo spontaneous or induced autoxidation by the presence of FeCl3 and AA, where the latter is oxidized at the expense of the metal being reduced and thus the ion is available to catalyze the Fenton-Habber reaction-Weiss (Hiroi et al., 2005; Kooncumchoo, 2005).

The subject of assay [3] is PC12 cells. Description: Cytoprotection against H2O2 damage in PC12 cells (MTT). It counts as cell-based. The procedure:
FIG. 7. Cytoprotective effect of KM-34 (1-100 μM) against damage induced by H2O2 (150 μM) in cultures of PC12 cells. Viability (% live cells) was determined by the MTT assay. Cells were seeded at a density of 5×10^5 cells/mL in a 96-well plate. The KM-34 was added simultaneously to the addition of the H2O2 mixture. The culture was then allowed to incubate at 37° C, […] and 5% CO 2 for 4 hours. After this time the supernatant was removed and the cells were incubated with 20 μg of MTT for an additional 2 hours and the absorbance at 450 nm was measured with reference to 630 nm. The results are expressed as percentage of live cells relative to the control (undamaged cells, 100% live cells). The * represents significant differences (p<0.05) with respect to the H2O2 control.
FIG. 15. The survival rate for […] administered 150 μM H2O2 is shown. The control group was not administered 150 μM H2O2. The remaining four groups were administered 150 μM H2O2. The “H2O2 150 μM” group was not administered any compounds of the invention. The “JM 1 μM” group was administered 1 μM JM-20. The “KM 0.1 μM” group was administered 0.1 μM KM-34. The “JM 1 μM+KM 0.1 μM” group was administered 1 μM JM-20 and 0.1 μM KM-34.
H2O2 is formed in vivo spontaneously or enzymatically. At low concentrations this may be poorly reactive, however at high concentrations it may interact with and generate inactivation of the energy generating systems of the cells. In addition H2O2 is able to oxidize —SH groups of proteins and cause DNA strand rupture. Their most damaging effect is the formation of catalyzed transition metals by the Fenton-Habber-Weiss reaction (Martinez, 2005). This is based on the use of H2O2 in this test, with the aim of observing if the KM-34 is capable of reversing the damages caused by the chemical agent.

Assay [4] deals with animals damaged with 6-OHDA. Description: 6-OHDA Parkinson's model, vertical exploratory activity. It counts as in vivo, rats.
Assay [5] has as its system scopolamine cognitive deficit. Description: Scopolamine-induced dementia, new-object recognition. The class given is in vivo, rats. To be noted: 4 and 8 mg/kg p.o., 1 hour before scopolamine 1 mg/kg i.p. The procedure: FIG. 12. Effect of KM-34 on the recognition memory of new objects. In the new-object recognition test, KM-34 (2, 4 and 8 mg/kg, p.o) was administered 1 hour prior to scopolamine (1 mg/kg, i.p.) prior to the training phase. The results are expressed as the discrimination rate of the total time by scanning the object N with respect to F. The data are expressed as mean ± SD (n=8, per group). For statistical analysis, ANOVA and Tukey's multiple comparison test were performed. Different letters differ from each other for p<0.01.
In in vivo models, KM-34 was administered orally (p.o) at a rate of 4 mL/kg body weight. Doses of 2, 4 and 8 mg/kg were evaluated as acute administration 90 minutes before the start of behavioral tests. For administration the compound was suspended in carboxymethylcellulose (CMC) 0.05%. Scopolamine bromide was dissolved in 0.9% saline solution and administered intraperitoneally as a single dose (1 mg/kg, 4 mL/kg body weight) 30 minutes prior to the initiation of the behavioral tests. […]
This trial was conducted as proposed by Capurro et al. (Capurro et al., 2013), in an open field, on two successive days. […] The tests were video-recorded for the analysis of the exploration of the objects, defined by the time of exploration that the animal performs to each object. The discrimination rates between the F and N objects were calculated as: ID=(N−F)/(N+F).

A value given as a limit tells only on which side of the number the result lay.

A word on the IC50: it is the concentration at which inhibition is half-maximal.

Take `CC1(C)OC(=O)C(=Cc2ccc(O)c(O)c2)C(=O)O1` [KM-34, 5-[(3,4-dihydroxyphenyl)methylidene]-2,2-dimethyl-1,3-dioxane-4,6-dione]: the “Concentration significantly (p<0.05) inhibiting formation of oxidized pyrogallol vs vehicle” value in assay [1] is recorded as “greater than 5 μM”. Moreover, the IC50 in assay [1] (Tris-HCl pH 8.2, read-out: IC50, inhibition of autoxidation of pyrogallol (O2.- scavenging)) is 11 µM. The “Inhibition of oxidation of pyrogallol” value in assay [1] (from 50 μM) is listed as “totally inhibited”. The “Concentration significantly inhibiting Fe3+/AA-induced POL” value in assay [2] (induced by FeCl3 and AA) was more than 10 µM. In addition, the “Concentration significantly inhibiting spontaneous POL” value in assay [2] (spontaneous lipid peroxidation) is recorded as “higher than 0.1 μM”. The “Concentration achieving significant cellular survival against H2O2” value in assay [3] (150 μM H2O2, 4 hours) was “higher than 5 μM”. The “% cell survival” value in assay [3] (150 μM H2O2, concentrations higher than 50 μM) was approximately 90%. In addition, the Cellular survival response result in assay [3] (150 μM H2O2, from 25 μM KM-34) is listed as “higher than 50%”. The Vertical exploratory behavior entry was “did not show statistically significant differences” in assay [4] (0.5 and 1 mg doses, vs damaged animals); “statistically significant differences with respect to damaged animals” in assay [4] (maximum dose 2 mg/Kg). Moreover, in assay [5], the “Recognition memory, discrimination index of new objects” value is “able to revert the affectation on the learning and the memory of term recognition induced by scopolamine”.

The values above are taken from US10722491B2, “Phenol compound and combination of same with a benzodiazepine fused to 1,4-dihydropyridine for treating diseases of the central nervous and vascular systems” (UNIVERSIDAD DE LA HABANA, priority 2016, dated 2020).
